US20200323828A1, “METHODS OF TREATING BEHAVIOR ALTERATIONS” (Oryzon Genomics, S.A., priority 2017, published 2020)

Key:
Type in all cases: in vivo
[1] = system: isolated Sprague-Dawley male rats; assay: Elevated plus maze (EPM) test in the rat isolation rearing model; settings: 0.16 or 0.48 mg/kg/day in drinking water
Experimental: (§1) Right after the weaning (post natal day 21-23), 48 Sprague-Dawley male rats were divided in two groups: Control (Non Isolated; n=12), maintained 3-4 animals per cage; Isolated (n=36), 1 animal per cage. Starting on postnatal day (PND) 61, adult isolated male rats were treated with vehicle, Compound 1 at 0.16 mg/kg/day or Compound 1 at 0.48 mg/kg/day (n=12/group) for 5 weeks. Control (non-isolated) animals were treated with vehicle. The administration route was drinking water and the vehicle 1.8% 2-hydroxypropyl-β-cyclodextrin. Drug concentration was adjusted weekly by body weight and water consumption. During the last week of treatment, all animals were tested in the RI (PND94) to evaluate social behavior and, on a different day, in the EPM test (PND87-88) to evaluate anxiety behavior.
The elevated plus maze (EPM) test was perfomed following a similar protocol to that described for mice in Example 3 above, as follows: The EPM consisted of four arms at right angles to each other connected to a central square and maintained elevated 50 cm above the floor. Two of the opposite arms had high walls (enclosed arms, 46.5×12×42 cm), whereas the other two were open arms (46.5×12×0.3 cm). The animal was placed facing a closed arm, and its movements were video-recorded for 5 min and analyzed by video-tracking using SMART® (v2.5.21, PanLab, SLU, Spain). […]

[2] = system: male SAMP8 mice; assay: Elevated plus maze (EPM) test in male SAMP8 mice
Experimental: (§2) Animals (n=8/group) were treated from month 5 of age with vehicle, 0.32 or 0.96 mg/kg/day Compound 1, and by month 7 of treatment they were sequentially submitted to the OF and EPM test at one week intervals.
(§3) Vehicle (1.8% 2-Hydroxypropyl-(3-cyclodextrin, Sigma-Aldrich, Spain) or KDM1A inhibitor (Compound 1) were administered in drinking water. SAMR1 mice treated with vehicle were included as a control (n=8). All drugs were administered via drinking water and diluted in vehicle. Drug concentration was calculated weekly in function of body weight and corrected in function of drinking water consumption.
Elevated Plus Maze (EPM): The EPM consisted of four arms at right angles to each other connected to a central square and maintained elevated 50 cm above the floor. Two of the opposite arms had high walls (enclosed arms, 30×5×15 cm), whereas the other two were open arms (30×5×0 cm). The animal was placed facing a closed arm, and its movements were video-recorded for 5 min and analyzed by video-tracking using SMART® (v3.0, PanLab, SLU, Spain).
(§4) Statistical analysis: SAMR1 and SAMP8 vehicle groups were compared by t-Test. Among the SAMP8 groups, different treatments were compared by oneway-ANOVA with Dunnet and SNK post-Hoc analysis.

[3] = system: male SAMP8 mice; assay: Open field (OF) test in male SAMP8 mice; settings: 0.32 or 0.96 mg/kg/day in drinking water
Experimental: as §2, §3
Open Field (OF): A 50×50-cm white plastic arena with 25-cm-high walls was used to analyze spontaneous exploratory behavior. The floor of the apparatus was divided into 25 equal squares. The movements of each animal were video recorded during 5 min. Locomotor activity was analyzed by video-tracking over the captured images using SMART® (v3.0, PanLab, SLU, Spain).
as §4

[4] = system: female SAMP8 mice; assay: Three chamber test (TCT) in female SAMP8 mice; settings: 0.96 mg/kg/day in drinking water for 4 months
From the text: In this test, after adaptation to the thee-chamber arena, a mouse is released into the middle chamber and allowed to explore the other compartments. In the adjacent ‘mouse’ compartment a docile stimulus mouse is situated in a mesh-wire container, while in the other adjacent compartment a similar container is located without stimulus mouse (object compartment). The propensity to approach or avoid the compartment with the stimulus mouse provides a measure of social interaction behavior/sociability. Wild type mice prefer social interaction and spend more time in the mouse compartment in comparison to the object compartment.
In this study, 8-month old female SAMP8 mice were treated either with vehicle (n=9) or 0.96 mg/kg/day of Compound 1 (n=12) for 4 months and then subjected to the TCT. […] Drug concentration was calculated weekly in function of body weight and corrected in function of drinking water consumption.
The TCT was performed in a Plexiglas transparent box with three identical consecutive chambers (15×15×20 cm) with two identical small metallic cages placed in both lateral chambers. […] This habituation time was monitored to avoid animals showing preference for one of the chambers. […] The time spent in each chamber and the time of direct exploration of the novel mice was measured during a total observation time of 10 minutes. […]

[5] = system: male SAMP8 mice; assay: Resident-intruder (RI) test in male SAMP8 mice (aggressive behavior)
Experimental: In this study, male SAMP8 animals were treated either with vehicle (n=5), 0.32 (n=8) or 0.96 (n=8) mg/kg/day of Compound 1 for 5 weeks from month 5 of age and then subjected to the RI test. Vehicle (1.8% 2-Hydroxypropyl-β-cyclodextrin, Sigma-Aldrich, Spain) or Compound 1 were administered in drinking water. SAMR1 mice treated with vehicle were included as a control (n=6). All drugs were administered via drinking water and diluted in vehicle. Drug concentration was calculated weekly in function of body weight and corrected in function of drinking water consumption.
The resident-intruder (RI) test was performed as follows: the test subject (resident) was maintained in its home cage without bedding changes for one week. […] The session (20 min) was video-recorded and social interaction (parameters tested: social interaction and rearings) and aggressive behavior (parameters tested: lateral threats, clinch attacks, keep-down behavior, and total attacks as the sum of all three aggressive behavior parameters measured) of the test subject were analyzed by an experimenter blind to the treatment.
as §4

[6] = system: isolated Sprague-Dawley male rats; assay: Resident-intruder (RI) test in the rat isolation rearing model (social withdrawal)
From the text: In this model, rats are isolated after weaning on postnatal day 21 (PND21) and deprived of the normal environment that preconditions their social behavior. Isolation in this phase of the development of the rat may lead to behavior alterations, particularly a lack of interest for social interactions, which can be used as a model for human social withdrawal.
as §1
The resident-intruder (RI) test was performed following a similar protocol to that described for mice in Example 3 above, as follows: Briefly, the test subject (resident) was maintained in its home cage without bedding changes for one week. […] The session was video-recorded during 15 min, and social interaction (parameters measured: active and passive social interaction, avoidance and time without social interaction) and aggressive behavior of the test subject were analyzed by an experimenter blind to the treatment.
Statistical analysis: Non Isolated and Isolated vehicle groups were compared by t-Test. Among the Isolated groups, different drug treatments were compared by oneway-ANOVA with Dunnet and SNK post-Hoc analysis.

With `Nc1nnc(CN[C@@H]2C[C@H]2c2ccc(OCc3ccccc3)cc2)o1` [Compound 1, 5-((((1R,2S)-2-(4-(benzyloxy)phenyl)cyclopropyl)amino)methyl)-1,3,4-oxadiazol-2-amine] as the molecule, how does the “effect on anxiety or locomotor activity” value [1] read?
Its value is “did not produce any significant effect”.

What about the “anxiolytic or sedative activity” value ([2]; conclusion from OF and EPM tests in SAMP8 mice) of the same molecule?
The value was “did not have anxiolytic or sedative activity”.

And the “time in the open arms of the EPM” value ([2]; male SAMP8 mice, 0.32 or 0.96 mg/kg/day in drinking water)?
Its value is “not significantly modified”.

And the locomotor activity [3]?
The locomotor activity was “nor did treatment with Compound 1 significantly affect locomotor activity”.

And the “preference for the socialization chamber (mice chamber) over the Object chamber” value ([4]; vs SAMR1, FIG. 5)?
The value was “restored”.

And the “time spent exploring a novel mouse” value ([4]; vs SAMR1, FIG. 6)?
Its value is “restored”.

And the “number of total attacks” value ([5]; male SAMP8 mice, 0.32 or 0.96 mg/kg/day in drinking water for 5 weeks, vs vehicle-treated SAMR1, FIG. 1)?
The value was “lowered the number of attacks in SAMP8 mice to SAMR1 levels”.

And the “number of clinch attacks” value ([5]; male SAMP8 mice, 0.32 or 0.96 mg/kg/day in drinking water for 5 weeks, vs vehicle-treated SAMR1, FIG. 2)?
The value was “lowered the number of attacks in SAMP8 mice to SAMR1 levels”.

What about the “tolerability of doses on long-term treatment” value ([5]; mice, 0.32 or 0.96 mg/kg/day in drinking water) of the same molecule?
Its value is “well-tolerated”.

And the number of evitations ([6]; isolated rats, 0.16 or 0.48 mg/kg/day in drinking water for 5 weeks, vs non-isolated rats, FIG. 4)?
The number of evitations was “restored to normality”.

And the “time without social interaction” value ([6]; isolated rats, 0.16 or 0.48 mg/kg/day in drinking water for 5 weeks, FIG. 3)?
Its value is “dose dependently reduced”.

What about the “tolerability of doses on long-term treatment” value ([6]; rats, 0.16 or 0.48 mg/kg/day in drinking water) of the same molecule?
The value was “well-tolerated”.
